Data from US4680285A, “Treatment of malignant tumors with 2-(β-D-ribofuranosylthiazole-4-carboxamide related compounds” (priority 1985, dated 1987).
“Also recorded” adds a separate entry of the source.

Legend:
[1] = test system: Lewis lung seed cells (brain tumors); assay: Intracranially inoculated Lewis lung brain tumors in vivo, survival (Example 12); set-up: species or system AKD2 F1 mice; conditions: for Treated Group Survival Time: control 9.6
Text: For Example 12, compound 1 was given IP to a group of AKD2 F1 mice which were inflicted by intercranial inoculation with Lewis lung seed cells to establish brain tumors.
For this test, 32 control animals were used and no control animals survived beyond day eleven with a mean death data of day 9.6 for the controls. Water was used as the drug vehicle. For both the control group and the test group, tumors were induced on day zero with initiation of drug treatment on day one where compound 1 was given once daily for nine days. Test results are expressed as T/C as per example 5.

[2] = toxicity in tumor bearing animals; format: in vivo; conditions: dosages up to 2000 mg/Kg, toxicity day
Text: In a host which has been diagnosed as being terminally ill with a malignant tumor excessive amounts beyond any toxicity range might be indicated if there is any probability of cure of the terminally ill host as is commonly practiced in current cancer chemotherapy.

[3] = test system: type 3 parainfluenza virus; conditions: cited from earlier work
virus = conditions: cited from earlier work

In the case of `NC(=O)c1csc([C@@H]2O[C@H](CO)[C@@H](O)[C@H]2O)n1` [Compound 1, 2-β-D-Ribofuranosylthiazole-4-Carboxamide], the “Percent Treated Animals/Control Animals” value ([1]; 25.0 mg/Kg IP once daily x9) is reported as 172%, the “Treated Group Survival Time” value ([1]; 25.0 mg/Kg IP once daily x9) is reported as 16.6 days and the “Percent Treated Animals/Control Animals” value ([1]; 37.5 mg/Kg IP once daily x9) is reported as 166%. For the same compound, the “Treated Group Survival Time” value ([1]; 37.5 mg/Kg IP once daily x9) was 16.0 days, the “Percent Treated Animals/Control Animals” value ([1]; 75 mg/Kg IP once daily x9) was 185% and the “Treated Group Survival Time” value ([1]; 75 mg/Kg IP once daily x9) was 19.0 days. The “Percent Treated Animals/Control Animals” value ([1]; 150 mg/Kg IP once daily x9) was 197%, the “Treated Group Survival Time” value ([1]; 150 mg/Kg IP once daily x9) was 20.5 days and the “Percent Treated Animals/Control Animals” value ([1]; 300 mg/Kg IP once daily x9) was 213%. The “Treated Group Survival Time” value ([1]; 300 mg/Kg IP once daily x9) was 20.5 days, the “Percent Treated Animals/Control Animals” value ([1]; 600 mg/Kg IP once daily x9) was 211% and the “Treated Group Survival Time” value ([1]; 600 mg/Kg IP once daily x9) was 20.3 days. The “Percent Treated Animals/Control Animals” value ([1]; 700 mg/Kg IP once daily x9) was 211%, the “Treated Group Survival Time” value ([1]; 700 mg/Kg IP once daily x9) was 20.3 days and the “Percent Treated Animals/Control Animals” value ([1]; 800 mg/Kg IP once daily x9) was 221%. For the same compound, the “Treated Group Survival Time” value ([1]; 800 mg/Kg IP once daily x9) was 21.3 days, the “effect on brain tumors” value ([1]; IP, once daily x9) was “reduction of the brain tumors” and the “deaths attributed to toxicity” value [2] was “no deaths of the animals were attributed to the toxicity”. For the same compound, the “in vitro antiviral activity” value [3] was “only moderate”, the “number of deaths of test animals vs placebo control animals” value (virus; in vivo antiviral tests) was “equal to or exceeded the number of deaths of the placebo control animals” and the “in vivo antiviral activity” value (virus; in vivo) was “no useful in vivo antiviral activity; also recorded: negative”.
